Measurements published in patent publication US8993606B2, “Oral formulations for treating metal overload” (FerroKin BioSciences, Inc., priority 2011, dated 2015).
Read-outs that look alike come from different tables or passages of the source.

Legend:
[1] = Aqueous solubility of salts; format: physicochemical; settings: water; read-out: solubility in water
Text: Typically, oral formulations described herein facilitate solubilizing an active ingredient (e.g., a desazadesferrithiocin analog, salt or polymorph) at a desired amount or rate suitable for the treatment of metal overload. As used herein, the term “solubility” is generally intended to be synonymous with the term “aqueous solubility,” and refers to the ability, and the degree of the ability, of a compound to dissolve in water or an aqueous solvent or buffer, as might be found under physiological conditions. Aqueous solubility is, in and of itself, a useful quantitative measure, but it has additional utility as a correlate and predictor, with some limitations which will be clear to those of skill in the art, of oral bioavailability. Typically, a soluble compound is generally desirable, and the more soluble, the better. In liquid formulations, solubility is typically reported in mg/mL, but other measures, such as g/g, may be used. Solubilities typically deemed acceptable may range from 1 mg/mL into the hundreds or thousands of mg/mL.
Solubility may be measured under varying conditions. For example, it may be measured under conditions similar to those found in the body, such as at gastric pH or at physiologic or near-physiologic pH. “Gastric pH” as used herein means about pH 1. […]

[2] = Example 8: single-dose study in healthy human subjects 3-16 mg/kg (PK); format: in vivo; settings: for half-life / AUC(0-t) / AUC(0-inf) / Cmax / Tmax: male, human, plasma; for AUC(0-t) / Cmax / Tmax: mean of 3 subjects
Text: Example 8 was a double-blind, placebo-controlled single dose-escalating study in healthy subjects. Men between the ages of 18-45 years qualified to participate if they were able to voluntarily give consent and had no clinically significant abnormal findings at the screening evaluation. Specifically, subjects had blood pressure in the normal range, ECG and clinical laboratory values within normal limits, tested negative for drugs of abuse and had not recently donated blood. Subjects were also HIV, Hepatitis B, and Hepatitis C negative and agreed to use an approved method of contraception during the study.
The objectives of this study were to assess the safety, tolerability, and pharmacokinetics of ascending single doses of Compound 1 compared to placebo. Additionally, dose proportionality and pharmacodynamics of Compound 1 were assessed. Four doses of Compound 1 (3, 6, 10, and 16 mg/kg), in capsule form, were evaluated in this study. Following screening, subjects in a given cohort were randomly assigned to receive either Compound 1 or placebo. In the first cohort, 3 subjects received […] and 2 received placebo; in each of the subsequent remaining 3 cohorts, 3 subjects received the next higher dose of Compound 1 and 1 received placebo. Subjects were dosed and then confined to the clinical research unit for 24 hours to conduct safety and pharmacokinetic assessments. Subjects were released from the clinic on Day 2 and returned daily for follow-up visits for 5 days post-dosing.
All 12 subjects who received a dose of Compound 1 were included in the analysis of pharmacokinetic parameters. All 17 subjects enrolled in the study were included in the analysis of pharmacodynamics.
Blood samples for determination of total (free and iron bound complex) plasma Compound 1 concentrations were collected on Day 1 at pre-dose (within 60 minutes prior to dose administration) and then at 0.25, 0.5, 0.75, 1, 1.5, 2, 2.5, 3, 3.5, 4, 8, 12 hours post-dose; on Day 2 at 24 and 36 hours post-dose; on Day 3 at 48 hours post-dose, on Day 4 at 72 hours post-dose; and on Day 5 at 96 hours post-dose.
Total urine collection for pharmacokinetic and pharmacodynamic assessment was performed at pre-dose and then for intervals 0-4, 4-8, 8-12, 12-24 hours post-dose. Collection of total urine for 24 hours post-dose for pharmacokinetic analysis was complete for all subjects who received a dose of Compound 1. It was noted, however, that Subject R105 (placebo) voided into the toilet once (at 3 minutes post-dose) during the 0-4 hour post-dose urine collection interval.

[3] = single oral dose 10 mg/kg, mean
[4] = single oral dose 16 mg/kg, mean

COCCOCCOCCOc1cccc(C2=N[C@@](C)(C(=O)O)CS2)c1O [Compound 1, (S)-4,5-Dihydro-2-[2-hydroxy-3-(3,6,9-trioxadecyloxy)phenyl]-4-methyl-4-thiazolecarboxylate magnesium hydroxide]
solubility [1]: ≥ 48 mg/mL | dose dependence of mean Cmax and AUC ([2]; 3-16 mg/kg): linear across the dose range | total fraction of administered drug excreted in urine over 24 hour, range ([2]; across all 4 dose levels): 19-83% | total fraction of administered drug excreted in urine over 24 hour, average ([2]; all 4 dose levels, standard deviation 18%): 59% | half-life ([2]; oral, 11 of 12 subjects, 3-16 mg/kg, read-out: median t1/2 (converted)): 7.32 h | half-life ([2]; oral, 11 of 12 subjects, 3-16 mg/kg, read-out: t1/2, range): 3.77 to 35.2 h | half-life ([2]; oral, 11 of 12 subjects, 3-16 mg/kg, standard deviation 10.1, read-out: mean t1/2 (converted)): 12.8 h | AUC(0-t) ([2]; po, 3 mg/kg, single oral dose 3 mg/kg, read-out: AUC0-24): 12100 ng·h/mL | AUC(0-t) ([2]; po, 3 mg/kg, single oral dose 3 mg/kg, read-out: AUC0-t): 12100 ng·h/mL | half-life ([2]; po, 3 mg/kg, single oral dose 3 mg/kg, mean, read-out: t1/2 (converted)): 4.4 h | AUC(0-t) ([2]; po, 6 mg/kg, single oral dose 6 mg/kg, read-out: AUC0-24): 24700 ng·h/mL | AUC(0-t) ([2]; po, 6 mg/kg, single oral dose 6 mg/kg, read-out: AUC0-t): 25300 ng·h/mL | half-life ([2]; po, 6 mg/kg, single oral dose 6 mg/kg, mean, read-out: t1/2 (converted)): 15.4 h | AUC(0-t) ([2]; po, 10 mg/kg, single oral dose 10 mg/kg, read-out: AUC0-24): 42700 ng·h/mL | AUC(0-t) ([2]; po, 10 mg/kg, single oral dose 10 mg/kg, read-out: AUC0-t): 43400 ng·h/mL | half-life ([2]; po, 10 mg/kg, single oral dose 10 mg/kg, mean, read-out: t1/2 (converted)): 16.1 h | AUC(0-t) ([2]; po, 16 mg/kg, single oral dose 16 mg/kg, read-out: AUC0-24): 74600 ng·h/mL | AUC(0-t) ([2]; po, 16 mg/kg, single oral dose 16 mg/kg, read-out: AUC0-t): 75400 ng·h/mL | half-life ([2]; po, 16 mg/kg, single oral dose 16 mg/kg, mean, read-out: t1/2 (converted)): 16.1 h | AUC(0-inf) ([2]; single oral dose 3 mg/kg, mean): 12200 ng·h/mL | Cmax ([2]; single oral dose 3 mg/kg): 5410 ng/mL | Tmax ([2]; single oral dose 3 mg/kg): 1.33 h | AUC(0-inf) ([2]; single oral dose 6 mg/kg, mean): 26600 ng·h/mL | Cmax ([2]; single oral dose 6 mg/kg): 12200 ng/mL | Tmax ([2]; single oral dose 6 mg/kg): 0.92 h | AUC(0-inf) [2, 3]: 43600 ng·h/mL | Cmax ([2]; single oral dose 10 mg/kg): 16600 ng/mL | Tmax ([2]; single oral dose 10 mg/kg): 1.17 h | AUC(0-inf) [2, 4]: 75600 ng·h/mL | Cmax ([2]; single oral dose 16 mg/kg): 34800 ng/mL | Tmax ([2]; single oral dose 16 mg/kg): 1 h | kel ([2]; single oral dose 3 mg/kg, mean): 0.1595 h⁻¹ | kel ([2]; single oral dose 6 mg/kg, mean): 0.0469 h⁻¹ | kel [2, 3]: 0.0562 h⁻¹ | kel [2, 4]: 0.0779 h⁻¹
